Test system: laparoscopic ports
Test: Laparoscopic cutaneous studies: treated vs untreated laparoscopic port sites
Format: in vivo, human
Details: another patient, 10 days after the treatment
Protocol: Cellerity® 10 topical lotion has been used in single patient multiple sites laparoscopic procedure studies. The studies compared healing time, severity of scar formation and inflammation at laparoscopic ports with and without CGP treatment.
The treatment was started within 24 hours after the laparoscopic surgery. The patient was instructed to allow the applied lotion to dry completely before applying their clothes and not to wash the treatment area for two hours after the application. This procedure was performed twice a day for three full weeks. […] The untreated ports were grossly inflamed, had tissue necrosis at the incision site and desquamation of epithelium. It also remained inflamed and the staple sites were still prominent and erythematous. At the incision line, a glassy layer of fibroblastic scar tissue was present.
Steri-Strips to the left side of the incisions, and leaving the midline left untreated. […] The untreated midline scar remained as inflamed and delayed in the healing process by 3-4 weeks, because the inflamed situation must resolve before the healing can occur. That delay appeared to have allowed more fibroblastic growth in the untreated scar, than was present on the treated scars.

Substance: calcium glycerophosphate [CGP]
- edematous changes vs untreated midline incision (left and right sides treated): no edematous changes
- erythema vs untreated midline incision (left and right sides treated): less erythema
- inflammation vs untreated midline incision (left and right sides treated): substantially less inflammation
- difference between direct application (right side) and application through Steri-Strips (left side) (treatment started 24 hours after surgery): no difference
